Reference: US8106031B2, “Hydrolytically-resistant boron-containing therapeutics and methods of use” (Anacor Pharmaceuticals, Inc., priority 2006, dated 2012)
In brackets after ≈: the same amount, converted by molar mass. Where two headings read alike, the source gives them in different places.

Legend:
[1] = system: Trichophyton mentagrophytes; assay: MIC against T. mentagrophytes (NCCLS broth dilution); assay type: cell-based; conditions: for MIC: Trichophyton mentagrophytes, read-out: Minimum inhibitory concentration, T. mentagrophytes
Excerpt: (§1) To determine the antifungal activity of these compounds we screened for their minimum inhibitory concentrations (MIC) against the major dermatophytes that cause onychomycosis, T. rubrum and T. mentagrophytes, and against the yeasts and molds C. albicans, C. neoformans and A. fumigatus to test for their broad spectrum activity. The antifungal agent ciclopirox, currently in use for the topical treatment of onychomycosis, was used as a reference.
(§2) All MIC testing against Trichophyton rubrum, Trichophyton mentagrophytes, Candida albicans, Cryptococcus neoformans and Aspergillus fumigatus were determined following the National Committee for Clinical Laboratory Standards (NCCLS) guidelines for antimicrobial testing of yeasts and filamentous fungi.^i,ii
(§3) Two-fold serial dilutions of the test compounds were prepared in 96-well plates. […] Pfaller M A, Chaturvedi V, Espinel-Ingroff A, Ghannoum M A, Gosey L L, Odds F C, Rex J H, Rinaldi M G, Sheehan D J, Walsh T J, Warnock D W. NCCLS publication M27-A2—Reference Method for Broth Dilution Antifungal Susceptibility Testing of Yeasts; Approved Standard—Second Edition. […] Pfaller M A, Chaturvedi V, Espinel-Ingroff A, Ghannoum M A, Gosey L L, Odds F C, Rex J H, Rinaldi M G, Sheehan D J, Walsh T J, Warnock D W. NCCLS publication M38-A—Reference Method for Broth Dilution Antifungal Susceptibility Testing of Filamentous Fungi; Approved Standard.

Trichophyton rubrum = assay: MIC against T. rubrum (NCCLS broth dilution); assay type: cell-based; conditions: for MIC: Trichophyton rubrum, read-out: Minimum inhibitory concentration, T. rubrum
Excerpt: as §1, §2, §3

Cryptococcus neoformans = assay: MIC against C. neoformans (NCCLS broth dilution); assay type: cell-based; conditions: for MIC: Cryptococcus neoformans, read-out: Minimum inhibitory concentration, C. neoformans
Excerpt: as §1, §2, §3

Aspergillus fumigatus = assay: MIC against A. fumigatus (NCCLS broth dilution); assay type: cell-based; conditions: for MIC: Aspergillus fumigatus, read-out: Minimum inhibitory concentration, A. fumigatus
Excerpt: as §1, §2, §3

[2] = system: T. rubrum, T. mentagrophytes, C. albicans, C. neoformans and A. fumigatus; assay: MIC against the panel of fungi tested; assay type: cell-based; conditions: for fold less active than the corresponding oxaborole: 6-membered oxaborin vs 5-membered oxaborole (23a vs 9a, 23b vs 9b, 24 vs 19b); for fold increase in potency: 5-fluoro compound relative to its R^i = H analog (9b vs 9a, 10b vs 10a), strains tested
Excerpt: MIC, or minimum inhibitory concentration, is the point where compound stops more than 90% of cell growth relative to an untreated control.
as §1, §2
Briefly, compounds were dissolved in DMSO and diluted in sterile water to give a working stock. Two-fold serial dilutions of the test compounds were prepared in 96-well plates. The plates were inoculated with the fungal suspensions to give a final inoculum size of 0.5−2.5×10^3 cells/mL for yeasts or 0.4−5×10^4 CFU/mL for filamentous fungi and then incubated for 24-168 h at 35° C. […] Pfaller M A, Chaturvedi V, Espinel-Ingroff A, Ghannoum M A, Gosey L L, Odds F C, Rex J H, Rinaldi M G, Sheehan D J, Walsh T J, Warnock D W. NCCLS publication M27-A2—Reference Method for Broth Dilution Antifungal Susceptibility Testing of Yeasts; Approved Standard—Second Edition. Wayne, P A: NCCLS; 2002 (Vol. 22, No. 15). • ii. Pfaller M A, Chaturvedi V, Espinel-Ingroff A, Ghannoum M A, Gosey L L, Odds F C, Rex J H, Rinaldi M G, Sheehan D J, Walsh T J, Warnock D W. NCCLS publication M38-A—Reference Method for Broth Dilution Antifungal Susceptibility Testing of Filamentous Fungi; Approved Standard. Wayne, P A: NCCLS; 2002 (Vol. 22, No. 16).

Candida albicans = assay: MIC against C. albicans (NCCLS broth dilution); assay type: cell-based; conditions: for MIC: Candida albicans, read-out: Minimum inhibitory concentration, C. albicans
Excerpt: as §1, §2, §3

[3] = Penetration of the nail plate; assay type: in vitro ADME; conditions: result in words
LogP = assay type: physicochemical; conditions: table of b228; read-out: eLogP
Excerpt: Further discussion, and assays for testing log P, molecular weight and water solubility are described in U.S. patent application Ser. Nos. 11/357,687 and 11/505,591, which are incorporated herein by reference.

[4] = Table 1, over 90% reduction of growth, 24-168 h at 35° C.
[5] = 24 h, Table 1, over 90% reduction of growth, 24-168 h at 35° C.

6-Fluoro-1-phenyl-1,2,3,4-tetrahydro-2,1-benzoxaborine [23a]
Minimum inhibitory concentration, T. mentagrophytes [1, 4]: 8 µg/mL | Minimum inhibitory concentration, T. rubrum (Trichophyton rubrum; [4]): 8 µg/mL | Minimum inhibitory concentration, C. neoformans (Cryptococcus neoformans; [4]): 16 µg/mL | Minimum inhibitory concentration, A. fumigatus (Aspergillus fumigatus; [4]): 16 µg/mL | fold less active than the corresponding oxaborole [2]: approximately 2 fold | Minimum inhibitory concentration, C. albicans (Candida albicans; [4]): 8 µg/mL

Fc1ccc2c(c1)COB2c1ccccc1 [9b, 1,3-Dihydro-5-fluoro-1-phenyl-2,1-benzoxaborole]
Minimum inhibitory concentration, T. mentagrophytes ([1]; Table 2, 1-phenyl series (9)): 2 µg/mL (≈ 9.43 µM) | MIC [1, 4]: 2 µg/mL (≈ 9.43 µM) | melting point: 90 to 99 °C | Minimum inhibitory concentration, T. rubrum (Trichophyton rubrum; Table 2, 1-phenyl series (9)): 1 µg/mL (≈ 4.72 µM) | MIC (Trichophyton rubrum; [4]): 1 µg/mL (≈ 4.72 µM) | MIC (Cryptococcus neoformans; [4]): 2 µg/mL (≈ 9.43 µM) | Minimum inhibitory concentration, C. neoformans (Cryptococcus neoformans; Table 2, 1-phenyl series (9)): 2 µg/mL (≈ 9.43 µM) | MIC (Aspergillus fumigatus; [4]): 2 µg/mL (≈ 9.43 µM) | Minimum inhibitory concentration, A. fumigatus (Aspergillus fumigatus; Table 2, 1-phenyl series (9)): 2 µg/mL (≈ 9.43 µM) | fold increase in potency [2]: 2-8 fold | MIC (Candida albicans; [4]): 0.5 µg/mL (≈ 2.36 µM) | Minimum inhibitory concentration, C. albicans (Candida albicans; Table 2, 1-phenyl series (9)): 0.5 µg/mL (≈ 2.36 µM)

Cc1cc(C2CCCCC2)n(O)c(=O)c1 [Ciclopirox, reference compound]
MIC [1, 4]: 0.5 µg/mL (≈ 2.41 µM) | MIC (Trichophyton rubrum; [4]): 0.5 µg/mL (≈ 2.41 µM) | penetration of the nail plate [3]: penetrates the nail plate poorly | MIC (Cryptococcus neoformans; [4]): 0.5 µg/mL (≈ 2.41 µM) | MIC (Aspergillus fumigatus; [4]): 1 µg/mL (≈ 4.82 µM) | MIC (Candida albicans; [4]): 0.5 µg/mL (≈ 2.41 µM)

Fc1ccc2c(c1)COB2c1ccccc1 [Compound 3]
penetration of the nail plate [3]: penetrates the nail plate poorly | logP (LogP): 3.55

c1ccc(B2OCc3ccccc32)cc1 [9a, 1,3-Dihydro-1-phenyl-2,1-benzoxaborole]
Minimum inhibitory concentration, T. mentagrophytes ([1]; Table 2, 1-phenyl series (9)): 4 µg/mL (≈ 20.6 µM) | MIC [1, 4]: 4 µg/mL (≈ 20.6 µM) | Minimum inhibitory concentration, T. rubrum (Trichophyton rubrum; Table 2, 1-phenyl series (9)): 4 µg/mL (≈ 20.6 µM) | MIC (Trichophyton rubrum; [4]): 4 µg/mL (≈ 20.6 µM) | MIC (Cryptococcus neoformans; [4]): 8 µg/mL (≈ 41.2 µM) | Minimum inhibitory concentration, C. neoformans (Cryptococcus neoformans; Table 2, 1-phenyl series (9)): 8 µg/mL (≈ 41.2 µM) | MIC (Aspergillus fumigatus; [4]): 4 µg/mL (≈ 20.6 µM) | Minimum inhibitory concentration, A. fumigatus (Aspergillus fumigatus; Table 2, 1-phenyl series (9)): 4 µg/mL (≈ 20.6 µM) | MIC values, range over the strains tested ([2]; all five fungi): 4 to 8 µg/mL | MIC (Candida albicans; [4]): 4 µg/mL (≈ 20.6 µM) | Minimum inhibitory concentration, C. albicans (Candida albicans; Table 2, 1-phenyl series (9)): 4 µg/mL (≈ 20.6 µM)

CC1OB(O)c2ccc(F)cc21 (centres unmarked) [19c, 1,3-Dihydro-5-fluoro-1-hydroxy-3-methyl-2,1-benzoxaborolane]
Minimum inhibitory concentration, T. mentagrophytes [1, 4]: 16 µg/mL (≈ 96.4 µM) | Minimum inhibitory concentration, T. rubrum (Trichophyton rubrum; [4]): 32 µg/mL (≈ 193 µM) | Minimum inhibitory concentration, C. neoformans (Cryptococcus neoformans; [4]): 32 µg/mL (≈ 193 µM) | Minimum inhibitory concentration, A. fumigatus (Aspergillus fumigatus; [4]): 16 µg/mL (≈ 96.4 µM) | fold decrease in activity ([2]; 3-methyl compound relative to 19b): 8-32 fold | Minimum inhibitory concentration, C. albicans (Candida albicans; [4]): 16 µg/mL (≈ 96.4 µM)

OB1OCCc2cc(F)ccc21 [compound 24, 6-Fluoro-1-hydroxy-1,2,3,4-tetrahydro-2,1-benzoxaborine]
MIC [1, 4]: 32 µg/mL (≈ 193 µM) | MIC (Trichophyton rubrum; [4]): 32 µg/mL (≈ 193 µM) | MIC (Cryptococcus neoformans; [4]): > 64 µg/mL | MIC (Aspergillus fumigatus; [4]): 32 µg/mL (≈ 193 µM) | fold less active than the corresponding oxaborole [2]: 32-256 fold | MIC (Candida albicans; [4]): 64 µg/mL (≈ 386 µM)

Cc1ccc(B2OCc3cc(F)ccc32)cc1 [9j, 1,3-Dihydro-5-fluoro-1-(4-methylphenyl)-2,1-benzoxaborole]
MIC ([1]; Table 2, 1-phenyl series (9)): 2 µg/mL (≈ 8.85 µM) | melting point: 48 to 49 °C | MIC (Trichophyton rubrum; Table 2, 1-phenyl series (9)): 2 µg/mL (≈ 8.85 µM) | MIC (Cryptococcus neoformans; Table 2, 1-phenyl series (9)): 0.5 µg/mL (≈ 2.21 µM) | MIC (Aspergillus fumigatus; Table 2, 1-phenyl series (9)): 0.5 µg/mL (≈ 2.21 µM) | MIC (Candida albicans; Table 2, 1-phenyl series (9)): 0.5 µg/mL (≈ 2.21 µM)

Fc1ccc2c(c1)COB2C=Cc1ccccc1 [10b, 1,3-Dihydro-5-fluoro-1-styryl-2,1-benzoxaborole]
MIC [1, 4]: 2 µg/mL (≈ 8.4 µM) | melting point: 84 to 86 °C | MIC (Trichophyton rubrum; [4]): ≤ 1 µg/mL | MIC (Cryptococcus neoformans; [4]): 0.5 µg/mL (≈ 2.1 µM) | MIC (Aspergillus fumigatus; [4]): 1 µg/mL (≈ 4.2 µM) | fold increase in potency [2]: 4-8 fold | MIC (Candida albicans; [4]): 0.5 µg/mL (≈ 2.1 µM)

Fc1ccc2c(c1)COB2c1cccc(Cl)c1 [9f, 1-(3-Chlorophenyl)-1,3-dihydro-5-fluoro-2,1-benzoxaborole]
MIC ([1]; Table 2, 1-phenyl series (9)): 8 µg/mL (≈ 32.5 µM) | melting point: 112 to 114 °C | MIC (Trichophyton rubrum; Table 2, 1-phenyl series (9)): 4 µg/mL (≈ 16.2 µM) | MIC (Cryptococcus neoformans; Table 2, 1-phenyl series (9)): 0.5 µg/mL (≈ 2.03 µM) | MIC (Aspergillus fumigatus; Table 2, 1-phenyl series (9)): 2 µg/mL (≈ 8.11 µM) | MIC (Candida albicans; Table 2, 1-phenyl series (9)): 0.25 µg/mL (≈ 1.01 µM)

Fc1ccc2c(c1)COB2c1cccnc1 [compound 15, 3-(1,3-Dihydro-5-fluoro-2,1-benzoxaborol-1-yl)pyridine]
MIC [1, 4]: 32 µg/mL (≈ 150 µM) | melting point: 210 to 212 °C | MIC (Trichophyton rubrum; [4]): 16 µg/mL (≈ 75.1 µM) | MIC (Cryptococcus neoformans; [4]): 16 µg/mL (≈ 75.1 µM) | MIC (Aspergillus fumigatus; [4]): 16 µg/mL (≈ 75.1 µM) | fold decrease in activity against the dermatophytes ([2]; T. rubrum and T. mentagrophytes, relative to 9b): 16-64 fold | fold reduction in activity against C. neoformans and A. fumigatus ([2]; relative to 9b): 4 fold | MIC (Candida albicans; [4]): 4 µg/mL (≈ 18.8 µM) | change in activity against C. albicans (Candida albicans; relative to 9b, in words): no change in activity

Fc1cccc(B2OCc3cc(F)ccc32)c1 [9g, 1,3-Dihydro-5-fluoro-1-(3-fluorophenyl)-2,1-benzoxaborole]
MIC ([1]; Table 2, 1-phenyl series (9)): 2 µg/mL (≈ 8.69 µM) | melting point: 80 to 82 °C | MIC (Trichophyton rubrum; Table 2, 1-phenyl series (9)): 1 µg/mL (≈ 4.35 µM) | MIC (Cryptococcus neoformans; Table 2, 1-phenyl series (9)): 1 µg/mL (≈ 4.35 µM) | MIC (Aspergillus fumigatus; Table 2, 1-phenyl series (9)): 1 µg/mL (≈ 4.35 µM) | MIC (Candida albicans; Table 2, 1-phenyl series (9)): 0.5 µg/mL (≈ 2.17 µM)

Cc1cscc1B1OCc2cc(F)ccc21 [compound 14, 1,3-Dihydro-5-fluoro-1-(4-methylthiophen-3-yl)-2,1-benzoxaborole]
MIC [1, 4]: 2 µg/mL (≈ 8.62 µM) | melting point: 51 to 53 °C | MIC (Trichophyton rubrum; [4]): 1 µg/mL (≈ 4.31 µM) | MIC (Cryptococcus neoformans; [4]): 1 µg/mL (≈ 4.31 µM) | MIC (Aspergillus fumigatus; [4]): 1 µg/mL (≈ 4.31 µM) | MIC (Candida albicans; [4]): 1 µg/mL (≈ 4.31 µM)

c1ccc(B2OCCc3ccccc32)cc1 [23b, 1-Phenyl-1,2,3,4-tetrahydro-2,1-benzoxaborine]
MIC [1, 5]: 8 µg/mL (≈ 38.4 µM) | MIC (Trichophyton rubrum; [5]): 8 µg/mL (≈ 38.4 µM) | MIC (Cryptococcus neoformans; [5]): 8 µg/mL (≈ 38.4 µM) | MIC (Aspergillus fumigatus; [5]): 8 µg/mL (≈ 38.4 µM) | fold less active than the corresponding oxaborole [2]: 4-16 fold | MIC (Candida albicans; [5]): 8 µg/mL (≈ 38.4 µM)
